The values that follow are results of earlier work, collected in US6641797B2, “Perfluoroalkyl-containing complexes with sugar radicals, process for their production and their use” (Schering Aktiengesellschaft, priority 2000, dated 2003).

Several values for one entry are separate records, joined by “and”; a condition that tells them apart may be missing. Equal entries are not always repeated.

For series [1] the following is noted: 39° C., 0.47 T; cited from earlier work.
The conditions of series [2]: 39° C., 0.47 T; cited from earlier work. The source holds these as a separate data set.
The conditions of series [3]: in vivo; cited from earlier work.
Series [4] concerns necrotic portion of a tumor. As to conditions: in vivo; cited from earlier work.
For the next series, the system named is infarcted tissue. The following applies: cited from earlier work.

In the case of `CNC(=O)CN(CCN(CCN(CC(=O)[O-])CC(=O)NC)CC(=O)[O-])CC(=O)[O-].[Gd+3]` [OMNISCAN^(R)], in series [1], the “T^1-Relaxivity in Water” value is 3.8 L/mmol/s. Also, the “T^1-Relaxivity in Plasma” value in series [2] is 4.4 L/mmol/s. As to `CNC[C@H](O)[C@@H](O)[C@H](O)[C@H](O)CO.CNC[C@H](O)[C@@H](O)[C@H](O)[C@H](O)CO.O=C([O-])CN(CCN(CC(=O)[O-])CC(=O)O)CCN(CC(=O)[O-])CC(=O)O.[Gd+3]` [MAGNEVIST^(R), Gd-DTPA], the “T^1-Relaxivity in Water” value in series [1] was 3.8 L/mmol/s. Also, the “T^1-Relaxivity in Plasma” value in series [2] is 4.8 L/mmol/s. Take `O=S(=O)([O-])c1ccc(-c2c3nc(c(-c4ccc(S(=O)(=O)[O-])cc4)c4ccc([n-]4)c(-c4ccc(S(=O)(=O)[O-])cc4)c4nc(c(-c5ccc(S(=O)(=O)[O-])cc5)c5ccc2[n-]5)C=C4)C=C3)cc1.[Mn+3]` [Mn-TPPS, manganese-5,10,15,20-tetrakis(4-sulfonatophenyl)-porphyrin]: in series [3], the LD50 result was “approximately 0.5 mmol/kg”. Moreover, in series [4], the “accumulation in the necrotic portion of a tumor” value is reported as “selectively accumulates in the necrotic portion of a tumor”. For the compound gadolinium-mesoporphyrin [Gd-MP], the “ratio of the signal intensities in MRI, infarcted in comparison to healthy tissue” value in the series on infarcted tissue (kidney and myocardium) was 2.10 and 2.19. In addition, in the series on infarcted tissue (myocardium (Example 1 of WO 95/31219)), the “metal content of infarcted tissue versus non-infarcted, myocardium” value is listed as “nine times as large”. `CNC[C@H](O)[C@@H](O)[C@H](O)[C@H](O)CO.O=C([O-])CN1CCN(CC(=O)[O-])CCN(CC(=O)O)CCN(CC(=O)[O-])CC1.[Gd+3]` [DOTAREM^(R)]: the “T^1-Relaxivity in Water” value in series [1] was 3.5 L/mmol/s. For the same compound, in series [2], the “T^1-Relaxivity in Plasma” value is 4.3 L/mmol/s.

For `C[n+]1ccc(-c2c3nc(c(-c4cc[n+](C)cc4)c4ccc([n-]4)c(-c4cc[n+](C)cc4)c4nc(c(-c5cc[n+](C)cc5)c5ccc2[n-]5)C=C4)C=C3)cc1.[111In+3]` [TMPyP, ^111In-5,10,15,20-tetrakis-(4-N-methyl-pyridinium)-porphyrin], the “accumulation in the necrotic portion of a tumor” value in series [4] is reported as “does not accumulate in the necrotic portion”.
